We go through five compounds from US20260356856A1, “KRAS G12S AND G12C INHIBITORS” (MIRATI THERAPEUTICS, INC., priority 2023, published 2026).

One assay addresses T1, KRas G12C (Homo sapiens, UniProt P01116, G12C).
T1 construct: Biotinylated KRas (corresponding to amino acids 1-169, produced at Accelegan Inc.); biotin (biotinylated); purchased Accelegan Inc
Put plainly: KRas binding assay, TR-FRET displacement of Cy5 labelled tracer. The conditions noted are these: 60-minute incubation at room temperature, 1% DMSO, pH 7.5. In outline: (§1)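 Room-temperature incubation (60 min) of compound with biotinylated KRas 1-169, tracer and Tb-streptavidin preceded the TR-FRET read. Final DMSO was 1%; buffer pH 7.5. Percent-of-control values went into a 4-parameter equation to give IC50.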

The next assay concerns the target T2, KRas G12S (Homo sapiens, UniProt P01116, G12S).
T2 construct: Biotinylated KRas (corresponding to amino acids 1-169, produced at Accelegan Inc.); biotin (biotinylated); purchased Accelegan Inc
The description is as above. The settings on record: 60-minute incubation at room temperature, 1% DMSO, pH 7.5. The method, boiled down:
as §1

Assay [1] concerns the target T3, KRas-mediated phosphorylation of ERK in MKN1 cells (Homo sapiens, UniProt P01116).
T3 construct: pERK HTRF read-out
Put plainly: Inhibition of KRas-mediated phosphorylation of ERK (HTRF), MKN1 cells. Type of assay: cell-based. The conditions noted are these: MKN1 cells (KRas WT); HTRF pERK; 3 h incubation. As for the experimental part:
Inhibition of KRas Phosphorylation of ERK (HTRF) by Exemplary Compounds of Formula (Ia) or (Ib)
Cisbio HTRF Advanced pERK Assay Catalog #64AERPEH • Cells: MKN1, PSN1 • Procedure: • 1. Day 1: Seed 6,000 cells/well −25 μl/well in 384-well white solid bottom plate; RPM1_10% FBS. Incubate overnight at 37 °C/5% CO2. • 2.
On the technique in general: In TR-FRET formats the signal depends on donor and acceptor labels being close together.

Assay [2] deals with T4, KRas-mediated phosphorylation of ERK in A549 cells (Homo sapiens, UniProt P01116, G12S).
T4 construct: pERK HTRF read-out
Description: Inhibition of KRas-mediated phosphorylation of ERK (HTRF), A549 cells. Type of assay: cell-based. The conditions noted are these: HTRF pERK, 3 h incubation.

A further assay concerns the target T5, KRas WT (Homo sapiens, UniProt P01116).
T5 construct: Biotinylated KRas (corresponding to amino acids 1-169, produced at Accelegan Inc.); biotin (biotinylated); purchased Accelegan Inc
Description: KRas binding assay, TR-FRET displacement of Cy5 labelled tracer. The settings on record: 60-minute incubation at room temperature, 1% DMSO, pH 7.5. The method, boiled down:
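Tb-streptavidin captured biotinylated KRas (1-169) in HEPES 50 mM, DTT 1 mM, MgCl2 5 mM, Tween-20 0.005% (pH 7.5), alongside tracer and compound at 1% final DMSO. One hour at RT, then read; IC50 from 4-parameter POC fit.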

Molecules are shown by their SMILES.

T1 sequence (P01116 1-169 isoform P01116-2 G12C): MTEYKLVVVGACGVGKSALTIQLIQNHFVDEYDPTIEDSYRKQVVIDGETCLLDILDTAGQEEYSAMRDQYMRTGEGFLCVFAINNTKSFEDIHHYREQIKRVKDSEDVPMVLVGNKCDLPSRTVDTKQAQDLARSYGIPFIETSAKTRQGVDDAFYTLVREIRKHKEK
T3 sequence (P01116 1-188 isoform P01116-2): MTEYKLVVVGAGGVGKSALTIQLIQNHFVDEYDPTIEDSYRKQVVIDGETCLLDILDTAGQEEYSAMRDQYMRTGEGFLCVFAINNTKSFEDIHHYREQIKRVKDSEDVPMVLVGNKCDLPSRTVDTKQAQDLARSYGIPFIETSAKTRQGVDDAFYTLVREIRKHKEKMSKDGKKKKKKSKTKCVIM
T2 sequence (P01116 1-169 isoform P01116-2 G12S): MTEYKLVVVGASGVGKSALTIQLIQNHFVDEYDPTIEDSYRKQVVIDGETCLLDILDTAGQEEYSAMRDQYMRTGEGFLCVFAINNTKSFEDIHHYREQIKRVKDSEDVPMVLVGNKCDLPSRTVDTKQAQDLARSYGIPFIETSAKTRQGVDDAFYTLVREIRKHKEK
T4 sequence (P01116 1-188 isoform P01116-2 G12S): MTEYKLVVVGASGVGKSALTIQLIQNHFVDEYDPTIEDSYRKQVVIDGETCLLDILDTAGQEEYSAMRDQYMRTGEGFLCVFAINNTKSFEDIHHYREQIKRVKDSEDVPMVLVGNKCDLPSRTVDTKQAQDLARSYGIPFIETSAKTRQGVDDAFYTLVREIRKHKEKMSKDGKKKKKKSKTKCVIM
T5 sequence (P01116 1-169 isoform P01116-2): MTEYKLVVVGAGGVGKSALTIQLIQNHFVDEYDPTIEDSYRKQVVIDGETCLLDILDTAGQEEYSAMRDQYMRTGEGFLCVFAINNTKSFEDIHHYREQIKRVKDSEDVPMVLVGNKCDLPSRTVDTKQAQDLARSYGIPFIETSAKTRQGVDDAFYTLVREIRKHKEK

For `CCc1c(F)ccc2cc(O)cc(-c3ncc4c(N5CC[C@H]6[C@@H](C5)[C@H]6C(=O)n5ccc(C)n5)nc(OC[C@@]56CCCN5C[C@H](F)C6)nc4c3F)c12` (stereo in doubt) [Example 99, (cis-3-(7-(8-ethyl-7-fluoro-3-hydroxynaphthalen-1-yl)-8-fluoro-2-(((2R,7aS)-2-fluorotetrahydro-1H-pyrrolizin-7a(5H)-yl)methoxy)pyrido[4,3-d]pyrimidin-4-yl)-3-azabicyclo[4.1.0]heptan-7-yl)(3-methyl-1H-pyrazol-1-yl)methanone], the half-inhibitory concentration (IC50) (in general, the concentration needed to halve the response being measured) on KRas G12C is 58 nM; on KRas G12S, 26 nM; in assay [1] it was 1050 nM; in assay [2], 54 nM.

As to `CCc1c(F)ccc2cc(O)cc(-c3ncc4c(N5C[C@@H](C)N(C(=O)n6ccc(C)n6)[C@H](C)C5)nc(OC[C@@]56CCCN5C[C@H](F)C6)nc4c3F)c12` [Example 86, ((2R,6R)-4-(7-(8-ethyl-7-fluoro-3-hydroxynaphthalen-1-yl)-8-fluoro-2-(((2R,7aS)-2-fluorotetrahydro-1H-pyrrolizin-7a(5H)-yl)methoxy)pyrido[4,3-d]pyrimidin-4-yl)-2,6-dimethylpiperazin-1-yl)(3-methyl-1H-pyrazol-1-yl)methanone], the IC50 turned out to be 3450 nM on KRas G12C; 2200 nM at KRas G12S; 2320 nM on KRas WT; 4230 nM in assay [1]; 8960 nM in assay [2].

Consider `CCc1c(F)ccc2cc(O)cc(-c3ncc4c(N5CC6(C(=O)n7ccc(C)n7)CCCC5C6)nc(OC[C@@]56CCCN5C[C@H](F)C6)nc4c3F)c12` (stereo partly drawn) [Example 87, (6-(7-(8-ethyl-7-fluoro-3-hydroxynaphthalen-1-yl)-8-fluoro-2-(((2R,7aS)-2-fluorotetrahydro-1H-pyrrolizin-7a(5H)-yl)methoxy)pyrido[4,3-d]pyrimidin-4-yl)-6-azabicyclo[3.2.1]octan-1-yl)(3-methyl-1H-pyrazol-1-yl)methanone], for which the IC50 was 365 nM on KRas G12C; 1680 nM at KRas G12S; 1580 nM at KRas WT; 4060 nM in assay [1]; above 10000 nM in assay [2].

For the compound `CCc1c(F)ccc2cc(O)cc(-c3ncc4c(N5CCC(OC)(C(=O)n6ccc(C)n6)CC5)nc(OC[C@@]56CCCN5C[C@H](F)C6)nc4c3F)c12` [Example 88, (1-(7-(8-ethyl-7-fluoro-3-hydroxynaphthalen-1-yl)-8-fluoro-2-(((2R,7aS)-2-fluorotetrahydro-1H-pyrrolizin-7a(5H)-yl)methoxy)pyrido[4,3-d]pyrimidin-4-yl)-4-methoxypiperidin-4-yl)(3-methyl-1H-pyrazol-1-yl)methanone], the IC50 came to 116 nM on KRas G12C; 1060 nM on KRas G12S; 1760 nM at KRas WT; 8070 nM in assay [1]; 589 nM in assay [2].

With `CCc1c(F)ccc2cc(O)cc(-c3ncc4c(N5CCC(COC)(C(=O)n6ccc(C)n6)CC5)nc(OC[C@@]56CCCN5C[C@H](F)C6)nc4c3F)c12` [Example 89, (1-(7-(8-ethyl-7-fluoro-3-hydroxynaphthalen-1-yl)-8-fluoro-2-(((2R,7aS)-2-fluorotetrahydro-1H-pyrrolizin-7a(5H)-yl)methoxy)pyrido[4,3-d]pyrimidin-4-yl)-4-(methoxymethyl)piperidin-4-yl)(3-methyl-1H-pyrazol-1-yl)methanone], the IC50 was 2470 nM on KRas G12C; 6630 nM at KRas G12S; 8490 nM at KRas WT; above 10000 nM in assay [1]; above 10000 nM in assay [2].
